Usually IC50 stands for the concentration that gives 50% inhibition.

The first assay concerns Hedgehog signalling pathway. Briefly: Gli-reporter NIH3T3 luciferase assay (Hedgehog pathway inhibition). To be noted: NIH3T3; Gli-reporter NIH-3T3 cells, recombinant mouse sonic hedgehog, 24 hours, luminescence; read-out: Category (Hedgehog pathway inhibition activity, IC50). The class given is cell-based. Here is the method:
In vitro biological evaluation of compounds of the invention was carried out using the procedure detailed below. The procedure provides activity data for the compounds of the invention against the Hedgehog signalling pathway. The activity is represented as IC50 values in Table 12 below.
The Gli-reporter NIH3T3 cell line (BPS Biosciences) was grown according to the suppliers recommendations. Briefly, cells were maintained in growth medium (DMEM supplemented with 10% calf serum, 1% Penicillin/Streptomycin, and 500 µg/mL of Geneticin) and grown at 37° C., 5% CO2. In order to passage cells they were first rinsed with phosphate buffered saline before the addition of 0.05% Trypsin/EDTA. Fresh growth media was added and the cells were transferred to a centrifuge tube, spun and resuspended at an appropriate cell density.
Gli-reporter NIH-3T3 cells were seeded at 20,000 cells/well into 96 well, poly-D-lysine coated white clear bottomed full area TC plates in growth media (without geneticin). Three wells were left with just media as cell free controls. Cells were then incubated for 24 hours at 37° C. in a 5% CO2.
Serial dilutions of the test compounds were prepared in 100% DMSO. 10 μl of compound or DMSO from each well was pipetted into a sterile, 0.5 ml deep well conical bottomed 96 well plate (intermediate plate). 190 μl of warmed assay media (Opti-MEM supplemented with 0.5% calf serum, 1% non-essential amino acids, 1 mM sodium pyruvate, 10 mM HEPES, 1% penicillin/Streptomycin) was then added to each well and mixed five times at 180 μl by electronic pipette to ensure homogeneity of the compound solution. This 1:20 dilution gives a top concentration of 50 μM in 5% DMSO, 95% assay media. 10 μl was pipetted from each well of the intermediate plate into a second deep well sterile plate. 490 μl of warm assay media was then added to each well and mixed five times at 300 μl. This gives a final top concentration of 1 μM in 0.1% DMSO.
After the 24 hour incubation, media was carefully removed by pipette and replaced with 45 μl of compound dilutions in triplicate. This was incubated for one hour at 37° C. in a 5% CO2. After an hour, 5 μl 10 μg/mL recombinant mouse sonic hedgehog (R&D Systems) was added to each well and the plates were incubated for a further 24 hours at 37° C., 5% CO2.
After 24 hours, plates were removed from the incubator and left to acclimatise to room temperature for 20 minutes. 50 μl of OneGLO assay reagent (Promega) was then added to each well and the plates gently shaken for a further 30 minutes. Plates were then read for luminescence on the EnVision plate reader (PerkinElmer).
In the case of `Cn1nccc1-c1nnc(N2CCC(NCc3ccncc3C(F)(F)F)CC2)c2ccccc12` [Example 51, 1-[4-(2-methylpyrazol-3-yl)phthalazin-1-yl]-N-[[3-(trifluoromethyl)-4-pyridyl]methyl]piperidin-4-amine], the concentration for half-maximal inhibition (IC50) lay within 0.01 to 0.2 µM.

In the case of `Cn1nccc1-c1nnc(N2CCC(NCc3ccc(Cl)cc3)CC2)c2ccccc12` [Example 35, N-[(4-chlorophenyl)methyl]-1-[4-(2-methylpyrazol-3-yl)phthalazin-1-yl]piperidin-4-amine], the IC50 was 0.01 to 0.2 µM.

For the molecule `COc1cccc(CNC2CCN(c3nnc(-c4ccnn4C)c4ccccc34)CC2)c1` [Example 70, N-[(3-methoxyphenyl)methyl]-1-[4-(2-methylpyrazol-3-yl)phthalazin-1-yl]piperidin-4-amine], the IC50 is 0.01 to 0.2 µM.

In the case of `Cn1nccc1-c1nnc(N2CCC(NCc3ccc(F)nc3C(F)(F)F)CC2)c2ccccc12` [Example 18, N-[[6-fluoro-2-(trifluoromethyl)-3-pyridyl]methyl]-1-[4-(2-methylpyrazol-3-yl)phthalazin-1-yl]piperidin-4-amine], the IC50 was in the range of 0.01 to 0.2 µM.

As to `Cn1nccc1-c1nnc(N2CCC(NCc3ccccc3Cl)CC2)c2ccccc12` [Example 38, N-[(2-chlorophenyl)methyl]-1-[4-(2-methylpyrazol-3-yl)phthalazin-1-yl]piperidin-4-amine], the IC50 fell in the range of 0.01 to 0.2 µM.

As to `COc1ccc(CN(C)C2CCN(c3nnc(-c4ccnn4C)c4ccccc34)CC2)cc1` [Example 63, (4-methoxyphenyl)methyl-methyl-[1-[4-(2-methylpyrazol-3-yl)phthalazin-1-yl]-4-piperidyl]ammonium], the IC50 lay in the range of 0.2 to 2 µM.

In the case of `Cn1nccc1-c1nnc(N2CCC(NCc3ccc(C#N)cc3)CC2)c2ccccc12` [Example 68, 4-[[[1-[4-(2-methylpyrazol-3-yl)phthalazin-1-yl]-4-piperidyl]amino]methyl]benzonitrile], the IC50 lay in the range of 0.2 to 2 µM.

On to `Cn1nccc1-c1nnc(N2CCC(NCc3ccc(F)cc3C(F)(F)F)CC2)c2cnccc12` [Example 49, N-[[4-fluoro-2-(trifluoromethyl)phenyl]methyl]-1-[1-(2-methylpyrazol-3-yl)pyrido[3,4-d]pyridazin-4-yl]piperidin-4-amine], for which the IC50 was 0.01 to 0.2 µM.

`Cn1nccc1-c1nnc(N2CCC(NC(=O)Nc3cccc(C(F)(F)F)c3)CC2)c2ccccc12` [Example 13, 1-[1-[4-(2-methylpyrazol-3-yl)phthalazin-1-yl]-4-piperidyl]-3-[3-(trifluoromethyl)phenyl]urea]: the 50% inhibitory concentration (IC50) was below 0.01 µM.

In the case of `COc1ccccc1NC(=O)NC1CCN(c2nnc(-c3ccnn3C)c3ccccc23)CC1` [Example 15, 1-(2-methoxyphenyl)-3-[1-[4-(2-methylpyrazol-3-yl)phthalazin-1-yl]-4-piperidyl]urea], the IC50 was below 0.01 µM.

On to `Cn1nccc1-c1nnc(N2CCC(NC(=O)Nc3ccc(OC(F)F)cc3)CC2)c2ccccc12` [Example 26, 1-[4-(difluoromethoxy)phenyl]-3-[1-[4-(2-methylpyrazol-3-yl)phthalazin-1-yl]-4-piperidyl]urea], for which the IC50 was below 0.01 µM.

Regarding `CC(C)c1ccccc1CNC1CCN(c2nnc(-c3ccnn3C)c3ccccc23)CC1` [Example 43, N-[(2-isopropylphenyl)methyl]-1-[4-(2-methylpyrazol-3-yl)phthalazin-1-yl]piperidin-4-amine], the half-inhibitory concentration (IC50) is 0.01 to 0.2 µM.

Take `Cn1nccc1-c1nnc(N2CCC(NC(=O)Nc3ccc(C#N)cc3)CC2)c2ccccc12` [Example 32, 1-(4-cyanophenyl)-3-[1-[4-(2-methylpyrazol-3-yl)phthalazin-1-yl]-4-piperidyl]urea]: the IC50 was below 0.01 µM.

Turning to `CN(Cc1ccc(F)cc1F)C1CCN(c2nnc(-c3ccnn3C)c3ccccc23)CC1` [Example 67, N-[(2,4-difluorophenyl)methyl]-N-methyl-1-[4-(2-methylpyrazol-3-yl)phthalazin-1-yl]piperidin-4-amine], the half-maximal inhibitory concentration (IC50) was 0.01 to 0.2 µM.

With `Cn1nccc1-c1nnc(N2CCC(Nc3ccc(F)cc3C(F)(F)F)CC2)c2ccccc12` [Example 53, N-[4-fluoro-2-(trifluoromethyl)phenyl]-1-[4-(2-methylpyrazol-3-yl)phthalazin-1-yl]piperidin-4-amine], the half-maximal inhibitory concentration (IC50) is below 0.01 µM.

Regarding `Cn1nccc1-c1nnc(N2CCC(NC(=O)Nc3cccc(F)c3)CC2)c2ccccc12` [Example 16, 1-(3-fluorophenyl)-3-[1-[4-(2-methylpyrazol-3-yl)phthalazin-1-yl]-4-piperidyl]urea], the IC50 was below 0.01 µM.

The assay is the same for the next values; noted with them: NIH3T3; Gli-reporter NIH-3T3 cells, recombinant mouse sonic hedgehog, 24 hours, luminescence; read-out: Gli luc IC50.
On to `CN(C(=O)NC(C)(C)C)C1CCN(c2nnc(-c3ccnn3C)c3ncccc23)CC1` [Example 129, 3-tert-butyl-1-methyl-1-[1-[8-(2-methylpyrazol-3-yl)pyrido[2,3-d]pyridazin-5-yl]-4-piperidyl]urea], for which the IC50 is above 0.2 µM.

Consider `Cn1nccc1-c1nnc(N2CCC(NCc3cccc(C#N)c3)CC2)c2c1CCC2` [Example 149, 3-[[[1-[1-(2-methylpyrazol-3-yl)-6,7-dihydro-5H-cyclopenta[d]pyridazin-4-yl]-4-piperidyl]amino]methyl]benzonitrile], for which the IC50 is above 0.2 µM.

Turning to `Cc1nc(C(F)(F)F)c(CN(C)C2CCN(c3nnc(-c4ccnn4C)c(C)c3C)CC2)s1` [Example 95, 1-[4,5-dimethyl-6-(2-methylpyrazol-3-yl)pyridazin-3-yl]-N-methyl-N-[[2-methyl-4-(trifluoromethyl)thiazol-5-yl]methyl]piperidin-4-amine], the 50% inhibitory concentration (IC50) lay in the range of 0.01 to 0.2 µM.

For the molecule `COc1ccc(-c2nnc(N3CCC(NCc4ccc(F)cc4C(F)(F)F)CC3)c(C)c2C)cn1` [Example 120, N-[[4-fluoro-2-(trifluoromethyl)phenyl]methyl]-1-[6-(6-methoxy-3-pyridyl)-4,5-dimethyl-pyridazin-3-yl]piperidin-4-amine], the IC50 was in the range of 0.01 to 0.2 µM.

For `Cn1nccc1-c1nnc(N2CCC(NCc3ccc(F)c(C#N)c3)CC2)c2c1CCC2` [Example 128, 2-fluoro-5-[[[1-[1-(2-methylpyrazol-3-yl)-6,7-dihydro-5H-cyclopenta[d]pyridazin-4-yl]-4-piperidyl]amino]methyl]benzonitrile], the IC50 is above 0.2 µM.

As to `COc1cc(-c2nnc(N3CCC(NS(=O)(=O)c4ccc(F)cc4C(F)(F)F)CC3)c(C)c2C)ccn1` [Example 172, 4-fluoro-N-[1-[6-(2-methoxy-4-pyridyl)-4,5-dimethyl-pyridazin-3-yl]-4-piperidyl]-2-(trifluoromethyl)benzenesulfonamide], the IC50 was above 1 µM.

On to `CN(Cc1cccc(C#N)c1)C1CCN(c2nnc(-c3ccnn3C)c3c2CCC3)CC1` [Example 131, 3-[[methyl-[1-[1-(2-methylpyrazol-3-yl)-6,7-dihydro-5H-cyclopenta[d]pyridazin-4-yl]-4-piperidyl]amino]methyl]benzonitrile], for which the IC50 lay in the range of 0.01 to 0.2 µM.

For the molecule `CSc1nccc(CN(C)C2CCN(c3nnc(-c4ccnn4C)c4ccccc34)CC2)n1` [Example 92, N-methyl-1-[4-(2-methylpyrazol-3-yl)phthalazin-1-yl]-N-[(2-methylsulfanylpyrimidin-4-yl)methyl]piperidin-4-amine], the IC50 was in the range of 0.01 to 0.2 µM.

Take `CN(Cc1ncccc1C(F)(F)F)C1CCN(c2nnc(-c3ccnn3C)c3ccccc23)CC1` [Example 147, N-methyl-1-[4-(2-methylpyrazol-3-yl)phthalazin-1-yl]-N-[[3-(trifluoromethyl)-2-pyridyl]methyl]piperidin-4-amine]: the half-maximal inhibitory concentration (IC50) is 0.01 to 0.2 µM.

In the case of `Cn1nccc1-c1nnc(N2CCC(NCc3cccc(F)c3F)CC2)c2ccccc12` [Example 163, N-[(2,3-difluorophenyl)methyl]-1-[4-(2-methylpyrazol-3-yl)phthalazin-1-yl]piperidin-4-amine], the IC50 fell in the range of 0.01 to 0.2 µM.

`Cc1c(-c2ccncc2)nnc(N2CCC(NS(=O)(=O)c3ccc(F)cc3C(F)(F)F)CC2)c1C` [Example 119, N-[1-[4,5-dimethyl-6-(4-pyridyl)pyridazin-3-yl]-4-piperidyl]-4-fluoro-2-(trifluoromethyl)benzenesulfonamide]: the concentration for half-maximal inhibition (IC50) fell in the range of 0.01 to 0.2 µM.

Consider `CSc1nccc(CN(C)C2CCN(c3nnc(-c4ccnn4C)c(C)c3C)CC2)n1` [Example 93, 1-[4,5-dimethyl-6-(2-methylpyrazol-3-yl)pyridazin-3-yl]-N-methyl-N-[(2-methylsulfanylpyrimidin-4-yl)methyl]piperidin-4-amine], for which the concentration for half-maximal inhibition (IC50) was above 0.2 µM.

Source of the values: patent US9579319B2 (Redx Pharma PLC, priority 2013, dated 2017).
